O=C(O)CCCC(=O)O
Details | solubility (mole fraction)
in cyclohexanone, 294.15 K | 0.153
in cyclohexanone, 298.45 K | 0.167
in cyclohexanone, 302.45 K | 0.181
in cyclohexanone, 307.15 K | 0.2
in cyclohexanone, 312.45 K | 0.238
in cyclohexanone, 317.05 K | 0.27
in cyclohexanone, 321.75 K | 0.309
in cyclohexanone, 326.35 K | 0.351
in cyclohexanone, 331.55 K | 0.401
in cyclohexanone, 335.25 K | 0.437
in propionic acid, 289.55 K | 0.238
in propionic acid, 294.15 K | 0.272
in propionic acid, 302.15 K | 0.337
in propionic acid, 305.65 K | 0.365
in propionic acid, 309.15 K | 0.395
in propionic acid, 312.85 K | 0.42
in propionic acid, 316.15 K | 0.447
in propionic acid, 319.65 K | 0.474
in propionic acid, 323.65 K | 0.509
in propionic acid, 332.15 K | 0.587
in ε-caprolactone, 286.25 K | 0.124
in ε-caprolactone, 291.55 K | 0.153
in ε-caprolactone, 296.15 K | 0.183
in ε-caprolactone, 300.25 K | 0.214
in ε-caprolactone, 304.45 K | 0.245
in ε-caprolactone, 308.55 K | 0.274
in ε-caprolactone, 312.45 K | 0.304
in ε-caprolactone, 316.05 K | 0.334
in ε-caprolactone, 320.25 K | 0.364
in ε-caprolactone, 325.25 K | 0.402

Source: BigSolDB 2.1
